Experimental data from patent US20230201284A1, “Uses and Formulations of Cannabinoids” (priority 2020, published 2023).
Where two headings read alike, the source gives them in different places.

Key:
[1] = systemic exposure after i.p. and oral application of CBD in mice (Deiana et al.); assay type: in vivo; settings: 20 mg/kg, assuming dose-proportional plasma concentrations
Description: A comparative investigation for systemic exposure after i.p. and oral application of CBD in mice and rats has shown that 120 mg/kg as a single dose leads to a maximum plasma concentration of 14,000 ng/ml in mice (S. Deiana et al. (2012). Plasma and brain pharmacokinetic profile of cannabidiol (CBD), cannabidivarine (CBDV), Delta(9)-tetrahydrocannabivarin (THCV) and cannabigerol (CBG) in rats and mice following oral and intraperitoneal administration and CBD action on obsessive-compulsive behaviour. Psychopharmacology (Berl) 219(3): 859-73).

[2] = n-octanol/water; cited from earlier work
[3] = mice, 120 mg/kg single dose; cited from earlier work
IL-6 secretion = settings: cellular models, majority of cases; cited from earlier work
[4] = system: LPS-induced acute lung injury; settings: cited from earlier work
human mononuclear cells = settings: nanomolar or micromolar concentrations; cited from earlier work
human neutrophils = settings: cited from earlier work
CD83 = settings: cited from earlier work
microglial cells = settings: 1-16 μmol/l; cited from earlier work
[5] = system: chemically induced acute hepatitis; settings: mice, 25 mg/kg; cited from earlier work
[6] = system: activated memory T cell line; settings: 1-5 μmol/l, cited from earlier work
[7] = system: ischemia-reperfusion-induced kidney injury; settings: mice, 10 mg/kg after induced kidney injury; cited from earlier work
IL-6 = settings: animal models including diabetes, asthma, pancreatitis and hepatitis; cited from earlier work
NK, NKT, T and B cells = settings: healthy rats, cited from earlier work
[8] = prophylactic, i.p. 0.3-80 mg/kg 60 min before LPS
[9] = therapeutic, 6 h after LPS, 20 mg/kg

C=C(C)[C@@H]1CCC(C)=C[C@H]1c1c(O)cc(CCCCC)cc1O [CBD, 2-[(1R,6R)-3-methyl-6-(1-methylethenyl)-2-cyclohexen-1-yl]-5-pentyl-1,3-benzenediol]
target peak exposure [1]: 2,300 ng/ml | log P [2]: about 6.1 | maximum plasma concentration [3]: 14,000 ng/ml | effective concentration for suppressive effect on IL-6 secretion (IL-6 secretion): ~5 µM | number of leukocytes including macrophages and neutrophils in the bronchoalveolar lavage fluid ([4]; 20 mg/kg, after LPS-induced lung inflammation): decreases | myeloperoxidase activity [4, 8]: significantly decreased | pro-inflammatory cytokine production including TNF-α and IL-6 [4, 8]: significantly decreased | total leukocytes migration [4, 8]: significantly decreased | vascular permeability [4, 8]: significantly decreased | leukocyte migration (neutrophil, macrophages and lymphocytes) into the lungs [4, 9]: decreased | mechanical lung function [4, 9]: improved | myeloperoxidase activity in the lung tissue [4, 9]: decreased | production of proinflammatory cytokines/chemokines [4, 9]: reduced | vascular permeability [4, 9]: reduced | release of pro-inflammatory cytokines (human mononuclear cells): suppressed | migration of human neutrophils (human neutrophils): inhibits | CD83 dendritic cell activation marker (CD83; dendritic cells from healthy individuals): not | CD83 dendritic cell activation marker (CD83; dendritic cells from individuals with HIV infection): suppresses | apoptosis in microglial cells (microglial cells): induces apoptosis | expression of MDSCs [5]: induces | pro-inflammatory cytokines such as IL-2, TNF-α and IL-6 [5]: reduction | IL-6 production and secretion [6]: decreased | production of IL-10 [6]: increased | Th17 signature cytokine IL-17 ([6]; dose-dependently): decrease | decreased Treg17 levels and increased Th17 levels [7]: reversed these effects | effect on kidney injury [7]: renoprotective | circulating IL-6 (IL-6): suppress | numbers of NK cells and NKT cells (NK, NKT, T and B cells; 2.5 mg/kg per day): increased | numbers of NK cells and NKT cells (NK, NKT, T and B cells; 5 mg/kg per day): not affected | number of T cells including T helper cells and cytotoxic T cells and of B cells (NK, NKT, T and B cells; daily 5 mg/kg): significantly reduced
